Reference: publication PMC9362525 (Diabetologia, 2022)
Where two headings read alike, the source gives them in different places.

Experiments:
[1] = system: men with T1DM and healthy men; assay type: in vivo, human
[2] = system: human subcutaneous primary preadipocytes; assay type: cell-based; conditions: for reduction of basal and insulin-stimulated glucose uptake: dose-dependent, exposure during differentiation
[3] = system: adult participants, liver steatosis by VCTE; conditions: multivariable adjusted
patients with T2D = assay type: in vivo, human; conditions: for change in LVEF with acipimox: resting
human delta cells = assay type: cell-based
[4] = system: β-cells from Ins2GFP knock-in mice; assay type: cell-based, mouse
[5] = system: skeletal muscle of type 2 diabetes patients; conditions: 5 weeks
[6] = system: individuals with prediabetes; conditions: 2 weeks
T2DM and NGT subjects = conditions: for EGP after drug: 10 mg single dose, 4 hours; for increase in renal glucose production (RGP): non-significant
patients with T2DM = assay type: in vivo, human; conditions: all
[7] = FAERS 2013 Q1-2020 Q4
participants with NAFLD = assay type: in vivo, human
human β-cells = assay type: cell-based
[8] = system: people with type 2 diabetes; assay type: in vivo, human; conditions: for achieved HbA1c: 16 weeks, pioglitazone 30mg, sitagliptin 100mg, canagliflozin 100mg
db/db mice retinas = assay type: in vivo, mouse
[9] = system: wounds of streptozotocin-diabetic C57BL/6 mice; assay type: in vivo, mouse
HFD/STZ C57Bl/6 mice = assay type: in vivo, mouse
C57BL/6J mice = assay type: in vivo, mouse
[10] = system: youth with type 2 diabetes; assay type: in vivo, human
[11] = system: patients with obesity and T2D; assay type: in vivo, human
EndoC-βH1 cells = assay type: cell-based, human; conditions: 100 nM
[12] = 10 mg once daily, LS mean (95% CI)
[13] = before RYGB, GIP […], GLP-1 1 pmol/kg/min, ~15 mM glucose

Question: With 3-hydroxybutyrate [3-OHB] as the molecule, how does the “blood D-3-OHB concentration during infusion” value ([1]; CTR, from 0.2±0.03) read?
Answer: 1.0 ± 0.1 mmol/L

Question: And the “circulating FFA concentration after infusion” value ([1]; CTR, from 0.48±0.09)?
Answer: 0.21 ± 0.04 mmol/L

Question: What about the “blood D-3-OHB concentration during infusion” value ([1]; T1DM, from 0.2±0.06) of the same molecule?
Answer: 1.2 ± 0.12 mmol/L

Question: What about the “circulating FFA concentration after infusion” value ([1]; T1DM, from 0.68±0.12) of the same molecule?
Answer: 0.15 ± 0.03 mmol/L

Question: Which “reduction of basal and insulin-stimulated glucose uptake” value [2] does the source give for `O=C1CCc2ccc(OCCCCN3CCN(c4cccc(Cl)c4Cl)CC3)cc2N1` [ARI, aripiprazole] here?
Answer: ≤ 70%

Question: What about the “reduction of preadipocyte differentiation rate” value ([2]; supra-therapeutic concentrations, 14 days) of the same molecule?
Answer: ≤ 80%

Question: For `CCC(CCC(C)O)COC(=O)c1ccccc1C(=O)O` (centres unmarked) [MEHHP, mono(2-ethyl-5-hydroxyhexyl) phthalate], which “OR for NAFLD per unit increase of urinary concentration” value [3] is on record?
Answer: 1.01

Question: Which “OR for NAFLD per unit increase of urinary concentration” value [3] does the source give for `CCC(CCC(C)=O)COC(=O)c1ccccc1C(=O)O` (centres unmarked) [MEOHP, mono(2-ethyl-5-oxohexyl) phthalate] here?
Answer: 1.01

Question: For `Cc1cc2c(s1)Nc1ccccc1N=C2N1CCN(C)CC1` [OLA, olanzapine], which “adipogenesis or lipid and glucose metabolism” value ([2]; 0.2 and 2 μM during differentiation) is on record?
Answer: did not affect

Question: What about the “increase in LEP expression” value ([2]; present during differentiation) of the same molecule?
Answer: ~ 2 fold

Question: Which results are given for `Cc1cnc(C(=O)O)c[n+]1[O-]` [acipimox]?
Answer: reduction of FFAs (patients with T2D; acute, at all visits): ~ 35%; change in LVEF with acipimox (patients with T2D; during empagliflozin treatment): -6±2%; change in LVEF with acipimox (patients with T2D; during insulin treatment): -5.4±1%

Question: For `CNC[C@H](O)c1ccc(O)c(O)c1` [adrenaline], which “change in K+-stimulated exocytosis” value (human delta cells) is on record?
Answer: +56%

Question: What about the “change in K+-stimulated exocytosis vs diazoxide only” value (from here on “change … vs diazoxide only”) (human delta cells) of the same molecule?
Answer: -59%

Question: Which “Ins2 gene activity state” value [4] does the source give for `N=C(N)NCCC[C@H](N)C(=O)O` [arginine] here?
Answer: inducing transitions from Ins2^GFP(low) states to Ins2^GFP(high) states

Question: Which results are given for `CCOc1ccc(Cc2cc([C@@H]3O[C@H](CO)[C@@H](O)[C@H](O)[C@H]3O)ccc2Cl)cc1` [dapagliflozin]?
Answer: PCr recovery rate [5, 12]: 23.1 (20.7-25.5) s; acetylcarnitine levels in muscle [5, 12]: 114.56 (91.16-137.95) pmoles*mg tissue^-1; lipid droplet size [5, 12]: 0.28 (0.20-0.36) μm^2; mitochondrial network integrity [5, 12]: 1.73 (1.33-2.12); mitochondrial-LD interaction [5, 12]: 12.51 (9.70-15.32) %; CPT1A gene expression increase ([5]; muscle biopsy): 1.33 fold; CPT1B gene expression increase ([5]; muscle biopsy): 1.13 fold; urinary glucose excretion ([6]; 10mg/day): 36 gram/24-hour; 24-hour RER ([6]; 10mg/day, whole-room indirect calorimetry): 0.814 ± 0.006; coupled mitochondrial respiration on lipid-derived substrates (O2-flux) ([6]; ex vivo skeletal muscle): 68.2 ± 3.2 pmol/mg/s; EGP after drug (T2DM and NGT subjects; NGT): 2.1±0.16; increase in renal glucose production (RGP) (T2DM and NGT subjects; NGT): 0.032 mg/kg.min; EGP after drug (T2DM and NGT subjects; T2DM): 2.43±0.15; increase in renal glucose production (RGP) (T2DM and NGT subjects; T2DM): 0.065 mg/kg.min; increase in total body EGP (T2DM and NGT subjects; in vivo): 0.45 mg/kg.min

Question: For `C=C[C@@]1(C)CC(=O)[C@]2(O)[C@@]3(C)[C@@H](O)CCC(C)(C)[C@@H]3[C@H](O)[C@H](OC(C)=O)[C@@]2(C)O1` [forskolin], which “change … vs diazoxide only” value (human delta cells) is on record?
Answer: +68%

Question: With `COc1ccc(Cl)cc1C(=O)NCCc1ccc(S(=O)(=O)NC(=O)NC2CCCCC2)cc1` [glibenclamide] as the molecule, how does the “incidence of severe hypoglycaemia” value (patients with T2DM) read?
Answer: 1.3 % per year

Question: With `CCCCCCCCCCCCCCCC(=O)N[C@@H](CCC(=O)NCCCC[C@H](NC(=O)[C@H](C)NC(=O)[C@H](C)NC(=O)[C@H](CCC(N)=O)NC(=O)CNC(=O)[C@H](CCC(=O)O)NC(=O)[C@H](CC(C)C)NC(=O)[C@H](Cc1ccc(O)cc1)NC(=O)[C@H](CO)NC(=O)[C@H](CO)NC(=O)[C@@H](NC(=O)[C@H](CC(=O)O)NC(=O)[C@H](CO)NC(=O)[C@@H](NC(=O)[C@H](Cc1ccccc1)NC(=O)[C@@H](NC(=O)CNC(=O)[C@H](CCC(=O)O)NC(=O)[C@H](C)NC(=O)[C@@H](N)Cc1cnc[nH]1)[C@@H](C)O)[C@@H](C)O)C(C)C)C(=O)N[C@@H](CCC(=O)O)C(=O)N[C@@H](Cc1ccccc1)C(=O)N[C@H](C(=O)N[C@@H](C)C(=O)N[C@@H](Cc1c[nH]c2ccccc12)C(=O)N[C@@H](CC(C)C)C(=O)N[C@H](C(=O)N[C@@H](CCCNC(=N)N)C(=O)NCC(=O)N[C@@H](CCCNC(=N)N)C(=O)NCC(=O)O)C(C)C)[C@@H](C)CC)C(=O)O` [liraglutide] as the molecule, how does the “PRR for gallbladder or biliary diseases” value [7] read?
Answer: 5.001

Question: What does the source list for `CC(C)c1nc(N(C)S(C)(=O)=O)nc(-c2ccc(F)cc2)c1/C=C/[C@@H](O)C[C@@H](O)CC(=O)O` [monotherapy, rosuvastatin]?
Answer: MRI-PDFF at study completion (participants with NAFLD; baseline 18.1 (combination), 15.0 (monotherapy)): 12.4%; CAP by transient elastography at completion (participants with NAFLD; baseline 321 (combination), 323 (monotherapy)): 311 dB/m

Question: With `NC(=O)N1c2ccccc2CC(=O)c2ccccc21` [oxcarbazepine] as the molecule, how does the “cytokine- and ER stress-induced β-cell death” value (human β-cells) read?
Answer: protected

Question: Which “achieved HbA1c” value [8] does the source give for `CCc1ccc(CCOc2ccc(CC3SC(=O)NC3=O)cc2)nc1` (centres unmarked) [pioglitazone] here?
Answer: 59.5 mmol/mol

Question: And the “weight on therapy higher than other drugs” value ([8]; [95%CI])?
Answer: 2.6 [2.3, 2.9] kg

Question: For `CC[C@H](C)[C@H](NC(=O)[C@H](Cc1ccccc1)NC(=O)[C@H](CCC(=O)O)NC(=O)[C@H](CCCCNC(=O)COCCOCCNC(=O)COCCOCCNC(=O)CC[C@H](NC(=O)CCCCCCCCCCCCCCCCC(=O)O)C(=O)O)NC(=O)[C@H](C)NC(=O)[C@H](C)NC(=O)[C@H](CCC(N)=O)NC(=O)CNC(=O)[C@H](CCC(=O)O)NC(=O)[C@H](CC(C)C)NC(=O)[C@H](Cc1ccc(O)cc1)NC(=O)[C@H](CO)NC(=O)[C@H](CO)NC(=O)[C@@H](NC(=O)[C@H](CC(=O)O)NC(=O)[C@H](CO)NC(=O)[C@@H](NC(=O)[C@H](Cc1ccccc1)NC(=O)[C@@H](NC(=O)CNC(=O)[C@H](CCC(=O)O)NC(=O)C(C)(C)NC(=O)[C@@H](N)Cc1cnc[nH]1)[C@@H](C)O)[C@@H](C)O)C(C)C)C(=O)N[C@@H](C)C(=O)N[C@@H](Cc1c[nH]c2ccccc12)C(=O)N[C@@H](CC(C)C)C(=O)N[C@H](C(=O)N[C@@H](CCCNC(=N)N)C(=O)NCC(=O)N[C@@H](CCCNC(=N)N)C(=O)NCC(=O)O)C(C)C` [semaglutide], which “PRR for gallbladder or biliary diseases” value [7] is on record?
Answer: 6.267

Question: For `N[C@@H](CC(=O)N1CCn2c(nnc2C(F)(F)F)C1)Cc1cc(F)c(F)cc1F` [sitagliptin], which “diabetes-induced down-regulation of presynaptic proteins” value (db/db mice retinas; eye drops 5 μL/eye, 10 mg/mL, twice per day, 2 weeks) is on record?
Answer: inhibits this diabetes-induced down-regulation

Question: And the blood glucose levels (db/db mice retinas; topical)?
Answer: without any effect

Question: What about the “achieved HbA1c” value [8] of the same molecule?
Answer: 59.9 mmol/mol

Question: Which “Ins2 gene activity state” value [4] does the source give for `CCCC(=O)O` [sodium butyrate] here?
Answer: inducing transitions from Ins2^GFP(low) states to Ins2^GFP(high) states

Question: Which results are given for Bone morphogenetic protein-7 [BMP7]?
Answer: acceleration of wound closure ([9]; 0.5 μg per wound/day topical, vs vehicle): 20%; number of lymphocytes in diabetic wounds ([9]; mouse, in vivo): did not change; collagen deposition higher ([9]; vs vehicle-treated wounds): 35%; increase in area of granulation tissue ([9]; vs vehicle-treated wounds): 50%; reduction in number of macrophages ([9]; vs vehicle-treated wounds): 30%

Question: With GABA as the molecule, how does the “change … vs diazoxide only” value (human delta cells) read?
Answer: +66%

Question: With Irisin as the molecule, how does the “change in body weight vs HFD/STZ” value (HFD/STZ C57Bl/6 mice; 0.5 μg/g, 14 days) read?
Answer: -13%

Question: What about the “change in glycemia vs HFD/STZ” value (HFD/STZ C57Bl/6 mice; 0.5 μg/g, 14 days, n=4) of the same molecule?
Answer: -31%

Question: And the “change in GSIS AUC vs HFD/STZ” value (HFD/STZ C57Bl/6 mice; mouse, in vivo)?
Answer: +23%

Question: What about the “change in alpha-cell area vs HFD/STZ” value (HFD/STZ C57Bl/6 mice; mouse, in vivo) of the same molecule?
Answer: -49%

Question: And the “change in beta-cell area vs HFD/STZ” value (HFD/STZ C57Bl/6 mice; mouse, in vivo)?
Answer: +34%

Question: What about the “change in insulin content vs HFD/STZ” value (HFD/STZ C57Bl/6 mice; mouse, in vivo) of the same molecule?
Answer: +36%

Question: And the “change in islets volume vs HFD/STZ” value (HFD/STZ C57Bl/6 mice; mouse, in vivo)?
Answer: +61%

Question: What about the “increase in beta-cell proliferation rate” value (HFD/STZ C57Bl/6 mice; vs SD and HFD/STZ) of the same molecule?
Answer: 9 fold

Question: What about the final body weight (C57BL/6J mice; 0.5 μg/g i.p., 4 weeks, HFD 49.67 ± 1.48) of the same molecule?
Answer: 44.87 ± 1.42 g

Question: And the fat mass (C57BL/6J mice; HFD 14.56 ± 0.43)?
Answer: 11.75 ± 0.78 g

Question: What about the fat/weight (C57BL/6J mice; HFD 29.37 ± 0.75) of the same molecule?
Answer: 26.08 ± 1.09%

Question: For dehydroaripiprazole [DARI], which “reduction of basal and insulin-stimulated glucose uptake” value [2] is on record?
Answer: ≤ 70%

Question: Which results are given for dulaglutide?
Answer: BMI change ([10]; 26 weeks): No effect; incidence of diarrhoea ([10]; pooled doses): 18.4%; incidence of nausea ([10]; pooled doses): 14.6%; incidence of vomiting ([10]; pooled doses): 15.5%; patients requiring rescue therapy ([10]; pooled doses 0.75 and 1.5 mg, 26 weeks): 2.9%

Question: With glucagon-like peptide-1 [GLP-1] as the molecule, how does the “augmentation of second phase insulin secretion vs saline-clamp” value (shortened to “augmentation … vs saline-clamp”) ([11]; 3 months after RYGB) read?
Answer: +233±32%

Question: What about the “augmentation … vs saline-clamp” value [11, 13] of the same molecule?
Answer: +399±84%

Question: And the “Ins2 gene activity state” value [4]?
Answer: inducing transitions from Ins2^GFP(low) states to Ins2^GFP(high) states

Question: With “glucose-dependent insulinotropic peptide [GIP]” as the molecule, how does the “augmentation … vs saline-clamp” value ([11]; 3 months after RYGB) read?
Answer: +90±14%

Question: What about the “augmentation … vs saline-clamp” value [11, 13] of the same molecule?
Answer: +96±16%

Question: What does the source list for “insulin-like growth factor binding protein 7 [IGFBP7]”?
Answer: insulin secretion normalised to total insulin (EndoC-βH1 cells; 72 h, CTRL 5.2, n=4): 4.0 %/h; C-peptide secretion at 20 mM glucose (EndoC-βH1 cells; acute, CTRL 111, n=5): 90 ng/mg prot/h
